From ChEMBL document CHEMBL5291721, “A preclinical secondary pharmacology resource illuminates target-adverse drug reaction associations of marketed drugs” (Nat Commun, 2023) come the findings set out here.

The target in one assay is Melanocortin receptor 3 (Homo sapiens, UniProt P41968).
The target in assay [1] is T1, Alpha-2A adrenergic receptor (Homo sapiens, UniProt P08913).
T1 sequence (P08913 whole entry): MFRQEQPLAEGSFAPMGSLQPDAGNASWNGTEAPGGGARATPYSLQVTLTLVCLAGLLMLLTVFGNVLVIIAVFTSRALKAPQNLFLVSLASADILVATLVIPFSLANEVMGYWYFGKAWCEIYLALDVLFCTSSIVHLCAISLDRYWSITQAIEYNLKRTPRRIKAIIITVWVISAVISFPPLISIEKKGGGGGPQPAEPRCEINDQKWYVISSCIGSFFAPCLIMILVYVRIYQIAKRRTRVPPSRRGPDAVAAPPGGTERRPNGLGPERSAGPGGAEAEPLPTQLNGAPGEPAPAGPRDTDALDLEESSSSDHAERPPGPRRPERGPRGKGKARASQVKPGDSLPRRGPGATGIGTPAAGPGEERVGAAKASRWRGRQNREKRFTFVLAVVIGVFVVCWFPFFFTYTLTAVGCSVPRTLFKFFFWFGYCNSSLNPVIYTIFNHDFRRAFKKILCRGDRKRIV
It counts as functional, cell-based.

The target in another assay is Motilin receptor (Homo sapiens, UniProt O43193).
Sequence of Motilin receptor (O43193 whole entry): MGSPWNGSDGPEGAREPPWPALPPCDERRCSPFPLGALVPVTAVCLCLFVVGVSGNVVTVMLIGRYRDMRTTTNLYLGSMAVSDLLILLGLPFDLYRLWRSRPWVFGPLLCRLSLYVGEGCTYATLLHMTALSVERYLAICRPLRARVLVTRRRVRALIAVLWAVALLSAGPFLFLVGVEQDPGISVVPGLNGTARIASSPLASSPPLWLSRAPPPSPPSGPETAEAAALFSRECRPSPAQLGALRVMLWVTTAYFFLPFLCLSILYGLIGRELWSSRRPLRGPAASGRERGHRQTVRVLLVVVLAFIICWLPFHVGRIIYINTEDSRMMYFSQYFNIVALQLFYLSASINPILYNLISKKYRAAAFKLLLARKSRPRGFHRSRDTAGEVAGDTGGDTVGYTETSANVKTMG
Another assay has as its target T2, Thromboxane A2 receptor (Homo sapiens, UniProt P21731).
T2 sequence (P21731 whole entry): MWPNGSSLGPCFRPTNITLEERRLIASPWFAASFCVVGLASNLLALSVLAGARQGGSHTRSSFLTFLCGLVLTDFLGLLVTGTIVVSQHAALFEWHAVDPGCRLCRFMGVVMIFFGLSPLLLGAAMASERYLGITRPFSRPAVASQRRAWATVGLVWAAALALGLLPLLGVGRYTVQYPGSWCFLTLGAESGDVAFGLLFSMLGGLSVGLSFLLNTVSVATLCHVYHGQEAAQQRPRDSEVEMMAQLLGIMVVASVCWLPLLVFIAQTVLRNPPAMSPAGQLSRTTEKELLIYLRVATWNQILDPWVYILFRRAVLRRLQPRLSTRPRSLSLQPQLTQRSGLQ

The next assay concerns the target T3, Endothelin-1 receptor (Homo sapiens, UniProt P25101).
T3 sequence (P25101 whole entry): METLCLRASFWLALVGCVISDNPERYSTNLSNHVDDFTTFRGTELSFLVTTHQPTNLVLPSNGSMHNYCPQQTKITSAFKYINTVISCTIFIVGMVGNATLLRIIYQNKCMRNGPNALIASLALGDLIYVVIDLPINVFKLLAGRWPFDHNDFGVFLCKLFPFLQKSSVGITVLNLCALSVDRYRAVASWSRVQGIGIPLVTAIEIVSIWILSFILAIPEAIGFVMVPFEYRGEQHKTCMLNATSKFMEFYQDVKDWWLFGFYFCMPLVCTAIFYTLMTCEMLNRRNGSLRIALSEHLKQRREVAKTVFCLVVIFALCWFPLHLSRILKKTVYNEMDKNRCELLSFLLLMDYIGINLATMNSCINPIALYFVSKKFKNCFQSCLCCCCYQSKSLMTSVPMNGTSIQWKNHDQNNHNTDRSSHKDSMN

The target of assay [2] is Beta-2 adrenergic receptor (Homo sapiens, UniProt P07550).
Sequence of Beta-2 adrenergic receptor (P07550 whole entry): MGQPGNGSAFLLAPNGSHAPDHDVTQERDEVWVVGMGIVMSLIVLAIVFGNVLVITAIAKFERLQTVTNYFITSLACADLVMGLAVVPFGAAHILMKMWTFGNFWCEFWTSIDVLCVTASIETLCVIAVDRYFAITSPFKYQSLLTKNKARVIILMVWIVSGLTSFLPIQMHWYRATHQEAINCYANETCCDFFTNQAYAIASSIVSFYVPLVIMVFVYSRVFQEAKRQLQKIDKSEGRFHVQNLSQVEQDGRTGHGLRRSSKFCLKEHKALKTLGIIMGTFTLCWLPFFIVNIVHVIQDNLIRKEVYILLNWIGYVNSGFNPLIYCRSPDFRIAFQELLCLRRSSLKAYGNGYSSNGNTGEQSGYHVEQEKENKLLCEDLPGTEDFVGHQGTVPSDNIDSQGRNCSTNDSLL
The target of assay [3] is 3',5'-cyclic-AMP phosphodiesterase 4D (Homo sapiens, UniProt Q08499). Format: functional.
Sequence of 3',5'-cyclic-AMP phosphodiesterase 4D (Q08499 whole entry): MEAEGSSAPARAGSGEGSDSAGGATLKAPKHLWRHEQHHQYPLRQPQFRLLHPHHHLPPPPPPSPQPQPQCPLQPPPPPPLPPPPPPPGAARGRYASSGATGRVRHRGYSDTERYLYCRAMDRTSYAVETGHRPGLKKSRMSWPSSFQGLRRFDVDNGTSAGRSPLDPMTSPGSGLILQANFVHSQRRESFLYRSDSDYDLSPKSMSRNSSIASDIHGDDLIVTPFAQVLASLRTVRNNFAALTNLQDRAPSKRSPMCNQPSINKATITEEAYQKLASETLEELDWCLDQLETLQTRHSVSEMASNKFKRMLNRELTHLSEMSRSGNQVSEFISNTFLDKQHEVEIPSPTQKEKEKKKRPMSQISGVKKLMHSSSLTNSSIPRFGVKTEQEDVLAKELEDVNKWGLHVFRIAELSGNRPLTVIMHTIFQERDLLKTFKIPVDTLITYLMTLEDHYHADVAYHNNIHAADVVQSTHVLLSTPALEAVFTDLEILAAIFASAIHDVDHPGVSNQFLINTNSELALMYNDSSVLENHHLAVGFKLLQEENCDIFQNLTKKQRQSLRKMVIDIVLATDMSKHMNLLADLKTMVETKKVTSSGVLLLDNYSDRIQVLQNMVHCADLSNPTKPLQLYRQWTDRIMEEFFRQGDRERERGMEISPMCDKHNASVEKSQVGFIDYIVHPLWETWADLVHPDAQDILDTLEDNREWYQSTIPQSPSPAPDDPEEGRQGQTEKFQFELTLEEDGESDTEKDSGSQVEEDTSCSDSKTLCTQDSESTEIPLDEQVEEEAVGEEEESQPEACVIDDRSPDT
The target in a further assay is T4, Adenosine receptor A3 (Homo sapiens, UniProt P0DMS8).
T4 sequence (P0DMS8 whole entry): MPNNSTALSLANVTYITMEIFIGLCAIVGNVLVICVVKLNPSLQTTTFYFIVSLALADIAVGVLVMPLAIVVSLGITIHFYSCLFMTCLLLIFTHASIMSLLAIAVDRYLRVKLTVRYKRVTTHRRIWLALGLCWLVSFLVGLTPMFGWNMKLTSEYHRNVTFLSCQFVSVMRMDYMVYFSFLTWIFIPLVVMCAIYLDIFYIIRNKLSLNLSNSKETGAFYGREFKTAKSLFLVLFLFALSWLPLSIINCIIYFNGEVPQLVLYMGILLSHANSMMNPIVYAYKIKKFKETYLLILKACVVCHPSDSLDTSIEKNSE

For assay [4], the target named is Delta-type opioid receptor (Homo sapiens, UniProt P41143).
Sequence of Delta-type opioid receptor (P41143 whole entry): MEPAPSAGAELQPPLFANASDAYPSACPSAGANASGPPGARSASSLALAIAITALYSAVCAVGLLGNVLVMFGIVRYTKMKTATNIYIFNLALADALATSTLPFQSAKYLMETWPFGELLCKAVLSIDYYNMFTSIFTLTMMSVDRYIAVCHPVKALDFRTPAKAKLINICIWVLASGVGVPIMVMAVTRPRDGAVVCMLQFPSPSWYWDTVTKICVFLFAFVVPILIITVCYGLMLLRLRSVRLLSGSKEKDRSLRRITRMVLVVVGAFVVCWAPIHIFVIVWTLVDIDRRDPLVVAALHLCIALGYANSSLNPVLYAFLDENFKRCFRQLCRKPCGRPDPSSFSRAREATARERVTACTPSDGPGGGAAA
For assay [5], the target named is T5, 5-hydroxytryptamine receptor 1A (Homo sapiens, UniProt P08908).
T5 sequence (P08908 whole entry): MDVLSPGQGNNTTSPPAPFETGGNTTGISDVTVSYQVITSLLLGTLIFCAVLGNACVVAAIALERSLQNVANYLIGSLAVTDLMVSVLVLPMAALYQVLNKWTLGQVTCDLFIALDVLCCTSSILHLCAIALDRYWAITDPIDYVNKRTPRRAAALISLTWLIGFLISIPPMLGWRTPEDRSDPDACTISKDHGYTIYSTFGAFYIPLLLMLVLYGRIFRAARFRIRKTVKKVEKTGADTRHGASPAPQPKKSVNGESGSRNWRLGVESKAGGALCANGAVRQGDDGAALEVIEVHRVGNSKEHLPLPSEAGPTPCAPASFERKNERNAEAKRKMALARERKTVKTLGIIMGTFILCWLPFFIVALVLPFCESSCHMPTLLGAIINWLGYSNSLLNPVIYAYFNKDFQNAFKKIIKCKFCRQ
It counts as functional, cell-based.

Assay [6] deals with Sodium-dependent noradrenaline transporter (Homo sapiens, UniProt P23975).
Sequence of Sodium-dependent noradrenaline transporter (P23975 whole entry): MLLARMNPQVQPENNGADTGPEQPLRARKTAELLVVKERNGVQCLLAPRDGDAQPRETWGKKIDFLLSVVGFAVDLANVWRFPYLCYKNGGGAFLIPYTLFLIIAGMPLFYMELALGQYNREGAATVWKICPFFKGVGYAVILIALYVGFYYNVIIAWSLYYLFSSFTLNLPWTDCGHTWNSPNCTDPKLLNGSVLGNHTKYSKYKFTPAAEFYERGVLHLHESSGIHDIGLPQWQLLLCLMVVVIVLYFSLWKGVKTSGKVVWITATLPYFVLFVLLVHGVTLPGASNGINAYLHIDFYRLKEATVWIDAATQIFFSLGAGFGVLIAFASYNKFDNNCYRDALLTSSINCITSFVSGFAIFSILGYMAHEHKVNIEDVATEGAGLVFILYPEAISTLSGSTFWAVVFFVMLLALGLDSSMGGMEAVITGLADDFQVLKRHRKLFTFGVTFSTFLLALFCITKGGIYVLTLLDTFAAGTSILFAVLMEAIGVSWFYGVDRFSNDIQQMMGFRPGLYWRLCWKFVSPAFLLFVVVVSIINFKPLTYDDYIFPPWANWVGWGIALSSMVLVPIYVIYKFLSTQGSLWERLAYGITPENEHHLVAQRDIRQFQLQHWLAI
The next assay concerns the target T6, Estrogen receptor (Homo sapiens, UniProt P03372).
T6 sequence (P03372 whole entry): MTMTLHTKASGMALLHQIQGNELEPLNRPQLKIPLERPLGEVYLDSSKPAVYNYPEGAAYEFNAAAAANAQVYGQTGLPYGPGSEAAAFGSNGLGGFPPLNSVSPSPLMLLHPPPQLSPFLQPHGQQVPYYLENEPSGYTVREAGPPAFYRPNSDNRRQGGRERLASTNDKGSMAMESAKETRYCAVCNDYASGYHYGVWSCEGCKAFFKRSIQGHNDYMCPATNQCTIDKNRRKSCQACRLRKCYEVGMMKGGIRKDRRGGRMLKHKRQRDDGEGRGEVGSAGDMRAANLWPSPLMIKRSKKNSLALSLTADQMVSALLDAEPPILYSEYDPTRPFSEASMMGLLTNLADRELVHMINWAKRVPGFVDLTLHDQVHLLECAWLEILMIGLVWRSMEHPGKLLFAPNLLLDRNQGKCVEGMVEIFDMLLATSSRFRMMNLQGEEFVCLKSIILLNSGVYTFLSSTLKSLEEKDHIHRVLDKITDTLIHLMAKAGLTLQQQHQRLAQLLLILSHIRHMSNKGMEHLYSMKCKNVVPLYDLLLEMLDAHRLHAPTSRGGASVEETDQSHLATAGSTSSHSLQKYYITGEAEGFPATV

Each structure is given as a SMILES string. Where “and” joins values, the source holds several entries; their conditions need not be identical. Equal values may be shown once.

Broadly, the AC50 is the midpoint of the concentration-response curve, whichever way the signal moves. Higher therefore signals activity only at high concentration.
Also: assay procedure not described here.

Sequence of Melanocortin receptor 3 (P41968 whole entry): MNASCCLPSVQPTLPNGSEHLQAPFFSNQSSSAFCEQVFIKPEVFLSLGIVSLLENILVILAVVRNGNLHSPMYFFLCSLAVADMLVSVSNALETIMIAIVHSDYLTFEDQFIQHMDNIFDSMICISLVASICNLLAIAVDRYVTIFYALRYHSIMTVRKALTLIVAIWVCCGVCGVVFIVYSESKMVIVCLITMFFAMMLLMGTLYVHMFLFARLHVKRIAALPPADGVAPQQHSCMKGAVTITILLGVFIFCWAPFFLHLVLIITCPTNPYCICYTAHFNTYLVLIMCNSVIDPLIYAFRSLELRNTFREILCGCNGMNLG

Consider `CCCCCCOC(=O)CCC(=O)CN` [HEXAMINOLEVULINATE], for which the AC50 (on Melanocortin receptor 3; in [1]; at Motilin receptor; on Thromboxane A2 receptor; at Endothelin-1 receptor; in assay [2]) was more than 30 µM each time. Further, the AC50 (in [3]; at Adenosine receptor A3; in assay [4]; in assay [5]; in assay [6]; on Estrogen receptor) was more than 30 µM each time.
`COC1=C(OC)C(=O)C(CCCCCCCCCCO)=C(C)C1=O` [IDEBENONE]: the AC50 at Melanocortin receptor 3 was more than 30 µM; in [1] it was more than 10 µM; on Motilin receptor, more than 10 µM; at Thromboxane A2 receptor, 31.2 µM; at Endothelin-1 receptor, more than 30 µM; in assay [2], more than 10 µM. Also, the AC50 is more than 10 µM in [3]; more than 30 µM at Adenosine receptor A3; more than 10 µM in assay [4]; more than 10 µM in [5]; more than 10 µM in assay [6]; more than 30 µM at Estrogen receptor.
As to `O=C1CN=C(c2ccccc2)c2cc(Cl)ccc2N1` [NORDAZEPAM], the AC50 at Melanocortin receptor 3 was more than 30 µM; in assay [1], more than 10 µM; on Motilin receptor it was more than 10 µM; at Thromboxane A2 receptor it was more than 30 µM; on Endothelin-1 receptor, more than 30 µM; in assay [2], more than 10 µM. The AC50 in assay [3] was 12 µM; on Adenosine receptor A3, more than 30 µM; in [4], more than 10 µM; in [5], more than 10 µM; in [6] it was more than 10 µM; on Estrogen receptor, more than 30 µM.
Consider `CC(CCc1ccccc1)NC(C)C(O)c1ccc(O)cc1` (stereo not drawn) [NYLIDRIN], for which the AC50 on Melanocortin receptor 3 is more than 30 µM; in [1], more than 10 µM; on Motilin receptor it was more than 10 µM; on Thromboxane A2 receptor, more than 30 µM; on Endothelin-1 receptor, more than 30 µM; in [2], 0.218 µM. For the same compound, the AC50 in assay [3] is more than 30 µM; on Adenosine receptor A3 it was more than 30 µM; in assay [4] it was more than 10 µM; in assay [5], 12 µM; in assay [6], 11 µM; on Estrogen receptor, more than 30 µM.
Take `CC(=O)c1ccc2c(c1)N(CCCN1CCC(CCO)CC1)c1ccccc1S2` [PIPERACETAZINE]: the AC50 on Melanocortin receptor 3 was more than 30 µM; in assay [1], more than 30 µM; on Motilin receptor, more than 30 µM; at Thromboxane A2 receptor, more than 30 µM; on Endothelin-1 receptor, more than 30 µM; in assay [2] it was 22 µM. Further, the AC50 in assay [3] is more than 30 µM; on Adenosine receptor A3, more than 30 µM; in [4] it was more than 30 µM; in assay [5], 0.043 µM; in assay [6], 1.8 µM; at Estrogen receptor, more than 30 µM.
For the compound `Cc1ccc(=O)n(-c2ccccc2)c1` [PIRFENIDONE], the AC50 (at Melanocortin receptor 3; in assay [1]; at Motilin receptor; at Thromboxane A2 receptor; at Endothelin-1 receptor; in assay [2]) was more than 30 µM in each case. The AC50 (in assay [3]; at Adenosine receptor A3; in assay [4]; in assay [5]; in assay [6]; on Estrogen receptor) was more than 30 µM throughout.
Regarding `CC(NCCc1ccc(O)cc1)C(O)c1ccc(O)cc1` (stereo not drawn) [RITODRINE], the AC50 is more than 30 µM at Melanocortin receptor 3; more than 30 µM in assay [1]; more than 30 µM on Motilin receptor; more than 30 µM on Thromboxane A2 receptor; more than 30 µM on Endothelin-1 receptor; 4.71 µM and 4.14 µM in [2]. Also, the AC50 in [3] was more than 30 µM; on Adenosine receptor A3 it was more than 30 µM; in assay [4], more than 30 µM; in assay [5] it was more than 10 µM; in [6] it was 23 µM and 37.6 µM; at Estrogen receptor it was more than 30 µM.
For `[H]/N=C(/N)N[C@H]1[C@H](O)[C@@H](O)[C@H](O[C@@H]2O[C@@H](C)[C@](O)(C=O)[C@H]2O[C@@H]2O[C@@H](CO)[C@H](O)[C@@H](O)[C@@H]2NC)[C@@H](N/C(N)=N\[H])[C@@H]1O` [STREPTOMYCIN], the AC50 (on Melanocortin receptor 3; in [1]; at Motilin receptor; at Thromboxane A2 receptor; on Endothelin-1 receptor; in assay [2]) was more than 30 µM each time. Moreover, the AC50 in assay [3] is more than 30 µM; at Adenosine receptor A3 it was more than 30 µM; in [4], more than 30 µM; in [5], more than 10 µM; in assay [6] it was more than 30 µM; at Estrogen receptor it was more than 30 µM.
For the compound `CN1c2ccccc2C(NCCCCCCC(=O)O)c2ccc(Cl)cc2S1(=O)=O` (stereo not drawn) [TIANEPTINE], the AC50 (on Melanocortin receptor 3; in assay [1]; at Motilin receptor; on Thromboxane A2 receptor; on Endothelin-1 receptor; in assay [2]) was more than 30 µM each time. Moreover, the AC50 in assay [3] was more than 30 µM; at Adenosine receptor A3 it was more than 30 µM; in assay [4] it was 28 µM; in assay [5], more than 30 µM; in assay [6], more than 30 µM; at Estrogen receptor it was more than 30 µM.
